Test: Stability of Atorvastatin Calcium Amorphous (related substances by HPLC on storage)
Format: physicochemical
[1] = 25° ± 2° C./RH 60 ± 5%, 1 Month
[2] = 25° ± 2° C./RH 60 ± 5%, 2 Months
[3] = 25° ± 2° C./RH 60 ± 5%, 3 months
[4] = 25° ± 2° C./RH 60 ± 5%, 6 Months
[5] = 25° ± 2° C./RH 60 ± 5%, 6 Months, listed as stable amorphous atrovastatin calcium
[6] = 25°±2° C./RH 60±5% for 6 months
[7] = Cold (5° C.) 2° to 8° C., 1 Month
[8] = Cold (5° C.) 2° to 8° C., 2 Months
[9] = Cold (5° C.) 2° to 8° C., 3 months
[10] = Cold (5° C.) 2° to 8° C., 6 Months
[11] = Cold (5° C.) 2° to 8° C., 6 Months, listed as stable amorphous atrovastatin calcium

hemi-calcium salt of (3R, 5R) 7-[3-phenyl-4-phenylcarbamoyl-2-(4-fluorophenyl)-5-isopropyl-pyrrol-1-yl]-3,5-dihydroxyheptanoic acid [Atorvastatin Calcium Amorphous]
single individual unknown impurities, area percentage of HPLC (20 to 8° C. under cold (5° C.) condition for 6 months): < 0.1% | Related Substance by HPLC: 3-O-Methyl Atorvastatin Calcium [1]: 0.02% | Related Substance by HPLC: Atorvastatin Desflouro Calcium [1]: 0.05% | Related Substance by HPLC: Atorvastatin Diasteroisomer [1]: 0.08% | Related Substance by HPLC: Atorvastatin Lactone [1]: 0.07% | Related Substance by HPLC: 3-O-Methyl Atorvastatin Calcium [2]: 0.03 | Related Substance by HPLC: Atorvastatin Desflouro Calcium [2]: 0.06% | Related Substance by HPLC: Atorvastatin Diasteroisomer [2]: 0.10% | Related Substance by HPLC: Atorvastatin Lactone [2]: 0.05% | Related Substance by HPLC: 3-O-Methyl Atorvastatin Calcium [3]: 0.03% | Related Substance by HPLC: Atorvastatin Desflouro Calcium [3]: 0.06% | Related Substance by HPLC: Atorvastatin Diasteroisomer [3]: 0.12% | Related Substance by HPLC: Atorvastatin Lactone [3]: 0.04% | Related Substance by HPLC: 3-O-Methyl Atorvastatin Calcium [4]: 0.03% | Related Substance by HPLC: Atorvastatin Desflouro Calcium [4]: 0.06% | Related Substance by HPLC: Atorvastatin Diasteroisomer [4]: 0.11% | Related Substance by HPLC: Atorvastatin Lactone [4]: 0.05% | Related Substance by HPLC: Atorvastatin diol methyl ester [4]: less than 0.1% | Related Substance by HPLC: Atorvastatin protected diol [4]: less than 0.1% | Related Substance by HPLC: t-butyl diol ester [4]: less than 0.1% | Related Substance by HPLC: 3-O-Methyl Atorvastatin Calcium [5]: less than 0.1% | Related Substance by HPLC: Atorvastatin Desflouro Calcium [5]: less than 0.1% | Related Substance by HPLC: Atorvastatin Diasteroisomer [5]: less than 0.1% | Related Substance by HPLC: Atorvastatin Lactone [5]: less than 0.1% | single individual known impurities, area percentage of HPLC [6]: less than 0.15% | single individual unknown impurities, area percentage of HPLC [6]: less than 0.1% | Related Substance by HPLC: 3-O-Methyl Atorvastatin Calcium [7]: 0.03% | Related Substance by HPLC: Atorvastatin Desflouro Calcium [7]: 0.06% | Related Substance by HPLC: Atorvastatin Diasteroisomer [7]: 0.08% | Related Substance by HPLC: Atorvastatin Lactone [7]: 0.08% | Related Substance by HPLC: 3-O-Methyl Atorvastatin Calcium [8]: 0.03% | Related Substance by HPLC: Atorvastatin Desflouro Calcium [8]: 0.07% | Related Substance by HPLC: Atorvastatin Diasteroisomer [8]: 0.09% | Related Substance by HPLC: Atorvastatin Lactone [8]: 0.04% | Related Substance by HPLC: 3-O-Methyl Atorvastatin Calcium [9]: 0.03% | Related Substance by HPLC: Atorvastatin Desflouro Calcium [9]: 0.07% | Related Substance by HPLC: Atorvastatin Diasteroisomer [9]: 0.10% | Related Substance by HPLC: Atorvastatin Lactone [9]: 0.05% | Related Substance by HPLC: 3-O-Methyl Atorvastatin Calcium [10]: 0.03% | Related Substance by HPLC: Atorvastatin Desflouro Calcium [10]: 0.05% | Related Substance by HPLC: Atorvastatin Diasteroisomer [10]: 0.08% | Related Substance by HPLC: Atorvastatin Lactone [10]: 0.06% | Related Substance by HPLC: Atorvastatin diol methyl ester [10]: less than 0.1% | Related Substance by HPLC: Atorvastatin protected diol [10]: less than 0.1% | Related Substance by HPLC: t-butyl diol ester [10]: less than 0.1% | Related Substance by HPLC: 3-O-Methyl Atorvastatin Calcium [11]: less than 0.1% | Related Substance by HPLC: Atorvastatin Desflouro Calcium [11]: less than 0.1% | Related Substance by HPLC: Atorvastatin Diasteroisomer [11]: less than 0.1% | Related Substance by HPLC: Atorvastatin Lactone [11]: less than 0.1% | Related Substance by HPLC: 3-O-Methyl Atorvastatin Calcium (Initial): 0.02% | Related Substance by HPLC: Atorvastatin Desflouro Calcium (Initial): 0.06% | Related Substance by HPLC: Atorvastatin Diasteroisomer (Initial): 0.07% | Related Substance by HPLC: Atorvastatin Lactone (Initial): 0.09% | Related Substance by HPLC: Atorvastatin protected diol (Initial): 0.01% | single individual known impurities, area percentage of HPLC (cold (5° C.) condition for 6 months): less than 0.15%

From US8115015B2 (Cadila Healthcare Limited, priority 2009, dated 2012)
